In publication PMC8625065 (Molecules, 2021):
Counter-ions that a name gives are not always drawn. Marks after values point to notes of the source that are not given here. One block for each compound: values may come before it.

How the values were obtained:
[1] = test system: ctDNA; assay: Thermal melting experiment; assay type: binding, calf; details: r = [compound]/[polynucleotide] = 0.3, pH 7.0, error ±0.5 °C
Experimental: (§1) Compound solutions were used for measurements in aqueous buffer (pH = 7, sodium cacodylate buffer, I = 0.05 mol dm^−3). Polynucleotides were purchased as noted: poly A-poly U, poly (dAdT)2 and calf thymus (ct)DNA (Sigma-Aldrich). Polynucleotides were dissolved in Na-cacodylate buffer, I = 0.05 mol dm^−3, pH = 7. The calf thymus ctDNA was additionally sonicated and filtered through a […]. Polynucleotide concentration was determined spectroscopically as the concentration of phosphates. UV–Vis spectra were recorded on a Varian Cary 100 Bio spectrophotometer using 1cm path quartz cuvettes. Calibration experiments were performed at 25 °C and pH = 7 (I = 0.05 mol dm^−3, sodium cacodylate buffer). Thermal melting curves for DNA and their complexes with studied compounds were determined as previously described by following the absorption change at 260 nm as a function of temperature. The absorbance of the ligands was subtracted from every curve and the absorbance scale was normalized. Tm values are the midpoints of the transition curves determined from the maximum of the first derivative and checked graphically by the tangent method. The ΔTm values were calculated by subtracting the Tm of the free nucleic acid from the Tm of the complex. Every ΔTm value reported here was the average of at least two measurements. The error in ΔTm is ±0.5 °C.

[2] = test system: poly (dAdT)2 (DNA, polymer) AT; assay: fluorescence titration, Scatchard; details: Na+ (sodium cacodylate, I = 0.05 M); sodium cacodylate buffer pH 7.0, 25 °C; polynucleotide concentration as phosphates; per base
[3] = test system: poly (dAdT)2 (DNA, polymer) AT; assay: UV thermal melting, 260 nm; details: Na+ (sodium cacodylate, I = 0.05 M); sodium cacodylate buffer pH 7
[4] = target: p(dAdT)2 (AT-DNA); assay: Fluorimetric titration, Scatchard processing; assay type: binding; details: p(dAdT)2, pH 7.0, sodium cacodylate buffer, I = 0.05 mol dm^-3
Experimental: (§2) Compound solutions were used for measurements in aqueous buffer (pH = 7, sodium cacodylate buffer, I = 0.05 mol dm^−3). Polynucleotides were purchased as noted: poly A-poly U, poly (dAdT)2 and calf thymus (ct)DNA (Sigma-Aldrich). Polynucleotides were dissolved in Na-cacodylate buffer, I = 0.05 mol dm^−3, pH = 7. The calf thymus ctDNA was additionally sonicated and filtered through a […]. Polynucleotide concentration was determined spectroscopically as the concentration of phosphates.
(§3) Fluorescence spectra were recorded on a Varian Cary Eclipse spectrophotometer at 25 °C using appropriate 1cm path quartz cuvettes. Fluorometric experiments were performed at pH = 7 (I = 0.05 mol dm^−3, sodium cacodylate buffer) by adding portions of polynucleotide solution into the solution of the studied compound. In fluorometric experiments, an excitation wavelength of λexc ≥ 300 nm was used to avoid the inner filter effect caused due to increasing absorbance of the polynucleotide. Emissions were determined in the range λem = 300–600 nm. Values for Ks obtained by processing titration data using the Scatchard equation [40], in most titrations have satisfactory correlation coefficients (≥0.98).

[5] = target: poly A-poly U (AU-RNA); assay: Fluorimetric titration, Scatchard processing; assay type: binding; details: pH 7.0, sodium cacodylate buffer, I = 0.05 mol dm^-3
Experimental: as §2, §3

[6] = test system: ctDNA (calf thymus DNA); assay: Fluorimetric titration, Scatchard processing; assay type: binding; details: pH 7.0, sodium cacodylate buffer, I = 0.05 mol dm^-3
Experimental: as §2, §3

[7] = test system: poly(dAdT)2; assay: Thermal melting experiment; assay type: binding; details: poly(dAdT)2, r = 0.3, pH 7.0; error ±0.5 °C
Experimental: as §1

[8] = test system: poly A-poly U; assay: Thermal melting experiment; assay type: binding; details: r = 0.3, pH 7.0, error ±0.5 °C
Experimental: as §1

[9] = test system: HFF (human foreskin fibroblasts); assay: MTT proliferation assay, 72 h, non-tumor cells; assay type: cell-based; parameters: selectivity index (SI): reference not given here; details: for IC50: Homo sapiens, Fibroblast, non-tumor HFF fibroblasts, MTT, 72 h
Experimental: (§4) The cell lines HeLa (cervical carcinoma), SW620 (colorectal adenocarcinoma, metastatic), A549 (lung adenocarcinoma), HepG2 (hepatocellular carcinoma) and HFF (human foreskin fibroblasts) were cultured as monolayers and maintained in Dulbecco’s modified Eagle medium (DMEM), supplemented with 10% fetal bovine serum (FBS), 2mM L-glutamine, 100 U/mL penicillin and 100 μg/mL streptomycin in a humidified atmosphere with 5% CO2 at 37 °C.
(§5) Cells were seeded onto 96-well microtiter plates at a seeding density of 3000 cells/well for carcinoma cell lines, and 5000 cells/well for normal human fibroblasts. The next day, cells were treated with test agents at five different concentrations (0.01–100 µM) and further incubated for 72 h. […] Following 72 h incubation, the MTT assay was performed and measured absorbances were transformed into percentage of cell growth as described previously. Results were obtained from three independent experiments.

[10] = test system: HepG2 (hepatocellular carcinoma); assay: MTT proliferation assay, 72 h; assay type: cell-based, human; details: for IC50: Homo sapiens, HepG2 cells, MTT, 72 h
Experimental: as §4, §5

[11] = test system: SW620 (colorectal adenocarcinoma, metastatic); assay: MTT proliferation assay, 72 h; assay type: cell-based, human; details: for IC50: Homo sapiens, SW-620, SW620 cells, MTT, 72 h
Experimental: as §4, §5

[12] = test system: HeLa (cervical carcinoma); assay: MTT proliferation assay, 72 h; assay type: cell-based, human; details: for IC50: Homo sapiens, HeLa cells, MTT, 72 h
Experimental: as §4, §5

[13] = test system: A549 (lung adenocarcinoma); assay: MTT proliferation assay, 72 h; assay type: cell-based; details: Homo sapiens, A549 cells
Experimental: as §4, §5

[14] = test system: poly A-poly U (RNA, polymer) A/U; assay: fluorescence titration, Scatchard; details: Na+ (sodium cacodylate, I = 0.05 M); sodium cacodylate buffer pH 7.0, 25 °C; polynucleotide concentration as phosphates; per base
[15] = test system: poly A-poly U (RNA, polymer) A/U; assay: UV thermal melting, 260 nm; details: Na+ (sodium cacodylate, I = 0.05 M); sodium cacodylate buffer pH 7
[16] = Solubility of stock solution in water; assay type: physicochemical; details: c = 2 × 10^−3 mol dm^−3
Source text: Based upon the antiproliferative activity, several compounds from a series of novel amidine- and amidoxime-substituted heterocycles (5, 6, 8–11 and 20) were selected for the study with calf thymus DNA (ctDNA), alternating AT-DNA (poly (dAdT)2) and AU-RNA (poly A-poly U).

[17] = test system: poly A-poly U (RNA, polymer) A/U; assay: CD titration; details: Na+ (sodium cacodylate, I = 0.05 M); sodium cacodylate buffer pH 7, 25 °C; weak negative ICD near 300 nm, intercalation

SMILES: Cl.c1cnc2c(OCc3cn(-c4ccc(C5=NCCN5)cc4)nn3)cccc2c1 [Compound 9, 8-((1-(4-(4,5-Dihydro-1H-imidazol-2-yl)phenyl)-1H-1,2,3-triazol-4-yl)methyloxy)-quinoline hydrochloride]
ΔTm [1]: 1 °C
logKs [2]: 5.8
binding [3]: yes
logKs [4]: 5.8
logKs [5]: 5.1
logKs [6]: 5.3
melting point: 229 to 232 °C
ΔTm [7]: 3 °C
ΔTm [8]: 0 °C
IC50 [9]: < 0.01 µM
IC50 [10]: 9.07 µM
IC50 [11]: 2.69 µM
IC50 [12]: 10.3 µM
IC50 [13]: 25.2 µM
logKs [14]: 5.1

SMILES: Cl.Cl.c1cc(C2=NCCN2)ccc1OCc1cn(-c2ccc(C3=NCCN3)cc2)nn1 [Compound 5, 1-(4-(4,5-Dihydro-1H-imidazol-2-yl)-phenyl]-4-((4-(4,5-dihydro-1H-imidazol-2-yl)phenyloxy)methyl]-1H-1,2,3-triazole dihydrochloride]
ΔTm [1]: 5 °C
logKs [2]: 6.5
binding [3]: yes
logKs [4]: 6.5
logKs [5]: 7.0
logKs [6]: 5.7
binding [15]: yes
melting point: > 250 °C
ΔTm [7]: 14 °C
ΔTm [8]: 2 °C
IC50 [9]: < 0.01 µM
IC50 [10]: 0.64 µM
IC50 [11]: 0.22 µM
IC50 [12]: 0.8 µM
IC50 [13]: 15.7 µM
logKs [14]: 7.0

SMILES: N/C(=N\O)c1ccc(-n2cc(COc3cccc4ccc(/C(N)=N/O)nc34)nn2)cc1 [Compound 20, (Z)-N′-Hydroxy-8-((1-(4-((Z)-N′-hydroxycarbamimidoyl)phenyl)-1H-1,2,3-triazol-4-yl)methoxy)quinoline-2-carboximidamide]
ΔTm [1]: 0 °C
logKs [4]: 4.7 ^d
logKs [5]: 4.6 ^d
logKs [6]: 4.3 ^d
melting point: 238 to 241 °C
solubility in water [16]: small aggregation
ΔTm [7]: 0 °C
ΔTm [8]: 0 °C
IC50 [10]: 51.3 µM
selectivity index (SI) on SW620 ([11]; HFF versus SW620 cells): > 14
IC50 [11]: 7.24 µM
selectivity index (SI) on HeLa ([12]; HFF versus HeLa cells): > 14
IC50 [12]: 7.15 µM
IC50 [13]: 31.4 µM

SMILES: c1cc(C2=NCCN2)c2ccn(Cc3cn(-c4ccc(C5=NCCN5)cc4)nn3)c2c1
logKs [2]: 6.6
binding [3]: yes
logKs [14]: 4.2

SMILES: Cl.O=c1cc(OCc2cn(-c3ccc(C4=NCCN4)cc3)nn2)c2ccccc2o1 [Compound 10, 4-((1-(4-(4,5-Dihydro-1H-imidazol-2-yl)phenyl)-1H-1,2,3-triazol-4-yl)methyloxy)-coumarin hydrochloride]
ΔTm [1]: 0 °C
logKs [2]: 6.7
binding [17]: yes
binding [3]: yes
logKs [4]: 6.7
ΔTm [7]: 2 °C
ΔTm [8]: 0 °C
IC50 [9]: < 0.01 µM
IC50 [10]: 3.55 µM
IC50 [11]: 1.75 µM
IC50 [12]: 1.9 µM
IC50 [13]: 7.86 µM

SMILES: Cl.c1cnc2c(NCc3cn(-c4ccc(C5=NCCN5)cc4)nn3)cccc2c1 [Compound 8, 8-(((1-(4-(4,5-Dihydro-1H-imidazol-2-yl)phenyl)-1H-1,2,3-triazol-4-yl)methyl)amino)-quinoline hydrochloride]
ΔTm [1]: 0 °C
logKs [2]: 5.5
logKs [4]: 5.5
melting point: 192 to 196 °C
ΔTm [7]: 1 °C
ΔTm [8]: 0 °C
IC50 [9]: 11.7 µM
selectivity index (SI) ([9]; normal HFF fibroblasts versus tumor cells): 2
IC50 [10]: 4.84 µM
IC50 [11]: 35.6 µM
IC50 [12]: 23.8 µM
IC50 [13]: 29.1 µM

Continued by falling IC50 [10], values first:

logKs [4]: 6.6
logKs [5]: 4.2
IC50 [10]: 2.37 µM
IC50 [11]: 18 µM
IC50 [12]: 13.5 µM
IC50 [13]: 49.9 µM
SMILES: c1cc(C2=NCCN2)c2ccn(Cc3cn(-c4ccc(C5=NCCN5)cc4)nn3)c2c1 [Compound 6, 1-((1-(4-(Dihydro-1H-imidazol-2-yl)phenyl)-1H-1,2,3-triazol-4-yl)methyl)-4-(dihydro-1H-imidazol-2-yl)-1H-indole dihydrochloride]
ΔTm [1]: 2 °C
logKs [6]: 5.0
ΔTm [7]: 6 °C
ΔTm [8]: 0 °C
IC50 [9]: < 0.01 µM

logKs [2]: 4.9
binding [3]: yes
logKs [4]: 4.9
logKs [5]: 4.9
melting point: > 250 °C
IC50 [10]: 0.28 µM
IC50 [11]: 4.77 µM
IC50 [12]: 2.13 µM
IC50 [13]: 4.49 µM
logKs [14]: 4.9
SMILES: Cl.O=c1ccc2ccc(OCc3cn(-c4ccc(C5=NCCN5)cc4)nn3)cc2o1 [Compound 11, 7-((1-(4-(4,5-Dihydro-1H-imidazol-2-yl)phenyl)-1H-1,2,3-triazol-4-yl)methyloxy)-coumarin hydrochloride]
ΔTm [1]: 0 °C
ΔTm [7]: 2 °C
ΔTm [8]: 0 °C
IC50 [9]: 3.14 µM
selectivity index (SI) on HepG2 ([10]; HFF versus HepG2 cells): 11
